From paper PMC9541279 (The Plant Journal, 2022)

Target: T1, DkSCPL1 and DkSCPL2 co-expressed (Diospyros kaki, UniProt C6L1N2)
T1 sequence (C6L1N2 36-491): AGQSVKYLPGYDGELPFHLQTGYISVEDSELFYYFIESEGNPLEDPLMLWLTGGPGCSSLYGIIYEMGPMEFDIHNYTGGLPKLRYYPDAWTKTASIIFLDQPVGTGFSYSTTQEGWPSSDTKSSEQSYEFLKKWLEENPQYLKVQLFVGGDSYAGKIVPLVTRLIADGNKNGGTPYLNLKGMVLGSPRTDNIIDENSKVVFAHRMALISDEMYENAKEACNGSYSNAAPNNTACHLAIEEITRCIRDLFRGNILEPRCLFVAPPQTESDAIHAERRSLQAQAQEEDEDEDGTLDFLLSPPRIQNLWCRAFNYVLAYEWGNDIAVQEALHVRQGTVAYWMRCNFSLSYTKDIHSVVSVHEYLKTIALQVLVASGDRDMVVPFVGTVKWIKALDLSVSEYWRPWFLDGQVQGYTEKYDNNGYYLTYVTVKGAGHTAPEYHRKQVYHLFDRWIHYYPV
T1 sequence (A4PB66 1-452 partner): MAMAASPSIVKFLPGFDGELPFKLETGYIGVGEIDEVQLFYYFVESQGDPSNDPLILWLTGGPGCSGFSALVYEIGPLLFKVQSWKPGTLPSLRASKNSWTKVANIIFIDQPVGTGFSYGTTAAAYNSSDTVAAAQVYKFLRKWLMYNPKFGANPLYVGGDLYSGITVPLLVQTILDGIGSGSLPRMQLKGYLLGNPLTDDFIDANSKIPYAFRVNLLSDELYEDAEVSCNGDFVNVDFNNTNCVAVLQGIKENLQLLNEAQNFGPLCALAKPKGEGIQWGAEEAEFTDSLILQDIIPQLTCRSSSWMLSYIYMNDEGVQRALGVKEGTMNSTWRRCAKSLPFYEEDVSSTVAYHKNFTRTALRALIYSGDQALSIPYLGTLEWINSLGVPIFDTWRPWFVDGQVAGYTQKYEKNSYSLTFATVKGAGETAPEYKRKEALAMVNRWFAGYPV
Test: EGCG formation, UPLC-MS/MS, crude extract of N. benthamiana leaves
Type: biochemical
Settings: 50 mM phosphate pH 6.0, 30 °C

SMILES | EGCG formation, UPLC-MS/MS, crude extract of N. benthamiana leaves (acyl donor βG) | EGCG formation, UPLC-MS/MS, crude extract of N. benthamiana leaves (acyl acceptor EGC)
Oc1cc(O)c2c(c1)O[C@H](c1cc(O)c(O)c(O)c1)[C@H](O)C2 [EGC] | the two paralogs when co‐expressed catalyzed the formation of EGCG | 
O=C(O[C@@H]1O[C@H](CO)[C@@H](O)[C@H](O)[C@H]1O)c1cc(O)c(O)c(O)c1 [βG] |  | the two paralogs when co‐expressed catalyzed the formation of EGCG
